Where two headings read alike, the source gives them in different places.
What was measured:
[1] = test system: primary neuronal cultures from embryonic rat brains; assay: Rat oscillation assay (FLIPR, neuronal calcium oscillations); format: cell-based; conditions: Rattus norvegicus
Procedure: This assay is a functional phenotypic assay designed to mimic epileptic seizures using primary neuronal cultures from embryonic rat brains, which form a functional neuronal network that generate synchronized intracellular calcium concentration oscillations when cultured at high density in 384-well plate. The epileptic phenotype is induced by incubating the neurons in magnesium-free assay buffer, that results in increased probability of NMDA receptor activation, leading to an increased frequency and amplitude of intracellular calcium oscillations. Once neurons are incubated with the calcium indicator dye Fluo-8 AM (Tebu-bio), neuronal calcium oscillations can be monitored in real time using FLIPR® Tetra (fluorometric plate reader, Molecular Devices). With these recordings, the effect of anti-epileptic drugs can be quantified. The anti-epileptic effect of compounds, which activate directly or indirectly the Kv7 channels can be modulated by the Kv7 channel blocker XE-991. The assay was performed as described previously (Pacico N, Mingorance-Le Meur A. New In Vitro Phenotypic Assay for Epilepsy: Fluorescent Measurement of Synchronized Neuronal Calcium Oscillations. PLoS ONE 9(1) 2014) with modifications described hereafter.
Animal care followed standard procedures in accordance with swiss institutional guidelines. Dissociated neuronal cultures were obtained from cerebral cortices of embryonic Wistar rats at embryonic stage E18 (Charles River). The uterine horns were removed by caesarian surgery from deeply anesthetized rats (Isofurane) and sacrificed by decapitation. The embryos were decapitated by closing forceps. The brains were isolated and dissected one by one in ice-cold PBS (Life Technologies) under optical control using a binocular. Meninges, olfactory bulbs, and basal ganglia were removed. Cortical hemispheres (still including the hippocampus) were cut in small pieces with tweezers and placed on ice in prechilled Hibernate-E medium (Life technology). The hemispheres were then incubated in 10 mL of Hibernate-E containing 15 U/mL papain (Worthington) for 25 min at 30° C. with gentle mixing every 10 min. Genomic DNA was then digested by prolonging the incubation during 10 min at 37° C. in presence of 4 U/mL rDNase I (Ambion). The obtained suspension was then centrifuged at 800 g for 5 min and the cell pellet was resuspended in 2 mL Hibernate-E and gently dissociated by pipetting up and down 10 times with a plastic Pasteur pipette resulting in a homogenous cell suspension. This suspension was immediately filtered through a 70 µm cell strainer (MACS® SmartStrainer, Miltenyi), collected in 10 mL Hibernate-E and centrifuged at 800 g for 5 min. The cell pellet was resuspended in Neurobasal medium, supplemented with 2% B-27, 0.5 mM Glutamax-I, 100 U/mL penicillin, 100 µg/mL streptomycin (Life Technologies) and diluted at the final concentration of 300′000 cells/mL. One day before plating the cells, 384-well plates were coated with 25 µL/well of 0.1 % poly-L-lysine solution (Sigma), incubated overnight at 37° C., washed two times with sterile distilled water and allowed to dry at room temperature for >2 h. The neurons were seeded at a density of 15′000 cells/well in 50 µL/well in a 384-well black, clear-bottomed plates (Corning) and subsequently maintained in an incubator at 37° C., 5% CO2 and 95% humidity for 8 to 10 days. After 3 and 7 days, 40% of media was renewed under sterile conditions.
Neurons seeded in the assay plates were washed with Hank’s balanced salt solution (HBSS) devoid of Ca^2+ and Mg^2+, supplemented with 20 mM HEPES (Life Technologies) and 2 mM CaCl2 (Sigma), pH 7.4 (hereafter called Assay buffer) using a Biotek EL406 plate washer. Neurons were loaded with 1 µM Fluo-8 AM in Assay buffer for 15 min at 37° C., 5% CO2. […]

[2] = test system: audiogenic generalized convulsive seizures in DBA/2J mice; assay: Audiogenic seizure-sensitive mouse model of generalized convulsive seizures; format: in vivo; conditions: challenge 1h
Procedure: Compounds were formulated in a 10% polyethylene glycol 400 (PEG 400) / 90% aqueous solution of 0.5 % methylcellulose (MC 0.5%). Firstly drugs are dissolved in PEG 400 and then suspended in MC 0.5 % for oral gavage at Xmg/5 mL/kg (X see table).
• 1. Procedure: Following two days of acclimatisation, auditory seizures are induced in male juvenile DBA/2J mice (22-24 days old; Janvier Labs, France). Each mouse is placed individually in the exposure chamber, an hemispheric acrylic glass dome (diameter: 50 cm) within a sound-attenuated box. The soundattenuated box is equipped with two house lights and a camera system (Fire-I from Unibrain) in order to observe and record the behavioral seizure response. After 60 seconds of habituation, the stimulus, a mixed frequency tone of 15-20 kHz at 110 dB (SASLab Lite, Avisoft Bioacoustics), is played from a speaker that is placed on the top center of the dome. […] Seizures are classified as following: stage 0, normal behavior; stage 1, wild running; stage 2, generalized clonus; stage 3, tonic extension of the hind limbs. • 2. Compounds testing: Acute compound effects on audiogenic generalized convulsive seizures are evaluated in independent groups of 8-10 mice randomly assigned. Following oral administration of compound or vehicle, the maximum seizure stage during sound exposure is assessed. Compounds are given 1 hour before exposure to the stimulus. Each mouse is exposed to the auditory stimulus only once and euthanized afterwards by CO2 inhalation.

[3] = target: T1, Kv7.2/7.3 (human KCNQ2 and KCNQ3 genes) in HEK293 cells (Homo sapiens, UniProt O43525+O43526); assay: Kv7.2/3 assay (FLIPR potassium assay, agonist mode); format: cell-based; conditions: Kv7.2/7.3 activation, responses relative to Flupirtine
T1 construct: host or cells: HEK293
Procedure: HEK293 cells were stably transfected with the appropriate ion channel cDNA(s) (human KCNQ2 and KCNQ3 genes). Cells were cultured in Dulbecco’s Modified Eagle Medium /Nutrient mixture F-12 (D-MEM/F-12) supplemented with 10% fetal bovine serum, 100 U/mL penicillin G sodium, 100 µg/mL streptomycin sulfate and selection antibiotics. FLIPR Test Procedure: For FLIPR assay, cells were plated in 384-well black clear-bottomed microtiter plates (BD Biocoat Poly-D-Lysine Multiwell Cell Culture Plate) at 15′000 to 30′000 cells per well. Cells were incubated at 37° C. overnight or until cells reached sufficient density in the wells (near confluent monolayer) to use in fluorescence assays. […] Assays were performed with the FLIPR potassium assay kit (Molecular Devices) according to the manufacturer’s instructions. Dye-loading: Growth media was removed and replaced with 20 µL of dye loading buffer for 60 min at room temperature. FLIPR Recording (agonist mode): Stock solutions of test compounds were prepared at a concentration of 33.3 mM in DMSO. 5 µL of 5x concentrated test, vehicle, or control compounds solutions prepared in the stimulation buffer (K^+-free buffer with 5 mM TI^+) were added to each well and fluorescence recording was continued for 5 min. The agonist effect (EC50 and % effect) of test or control compounds on Kv7 channels was determined as follows: Raw data was exported using Screenworks® 4.2 software and the fluorescence traces were analysed using Microsoft Excel (Microsoft Corp., Redmond, WA). The test compounds responses were expressed as % of maximum response of the control compound Flupirtine (Sigma-Aldrich), which was tested at concentrations ranging from 0.03 to 100 µM. Concentration-response data were fitted to a Hill equation. Non-linear least squares fits were made assuming a simple binding model. If appropriate, fits were weighted by the standard deviation. No assumptions about the fit parameters were made; the fit parameters were determined by the algorithm.

[4] = test system: seizure activity in various rodent models; conditions: acute seizure models, DBA2 mice, rat kindling model; cited from earlier work
[5] = test system: patients with drug-resistant focal-onset seizures; conditions: two phase three trials; cited from earlier work
[6] = test system: Knock-in mice carrying a KCNQ2 or KCNQ3 variant; conditions: knock-in mice with spontaneous seizures, reduced seizure thresholds; cited from earlier work
[7] = 20 min, 20 min after compound addition, AUC of fluorescence, read-out: FLIPR: IC50 [nM] 20 min
[8] = Cortical neurone, acute phase, ratio of AUC fluorescence before and after compound addition, rat cortical neurons, Mg-free buffer, read-out: FLIPR: IC50 [nM] acute

SMILES	IC50 [1, 7]	IC50 [1, 8]	Seizure stage [% vs. vehicle] ([2]; 30 mg/kg po)	EC50 [3]	Seizure stage [% vs. vehicle] ([2]; 15 mg/kg po)	seizure activity [4]	seizure frequency [5]	seizures [6]
O=C(NCc1cccc(OC(F)(F)F)c1)NC12CC(C(F)(F)F)(C1)C2 [Example 23, 1-(3-Trifluoromethoxy-Benzyl)-3-(3-Trifluoromethyl-Bicyclo[1.1.1]Pent-1-yl)-Urea]	53 nM	75 nM	-85 % vs. vehicle	–	–	–	–	–
O=C(NCc1cccc(OC(F)(F)F)c1)NC12CC(F)(C1)C2 [Example 24, 1-(3-Fluoro-bicyclo[1.1.1]pent-1-yl)-3-(3-trifluoromethoxybenzyl)-urea]	198 nM	208 nM	-100 % vs. vehicle	143 nM	–	–	–	–
O=C(NCc1cccc(C(F)(F)F)c1)NC12CC(C(F)(F)F)(C1)C2 [Example 37, 1-(3-Trifluoromethyl-benzyl)-3-(3-trifluoromethyl-bicyclo[1.1.1]pent-1-yl)-urea]	32 nM	26 nM	–	30 nM	-100 % vs. vehicle	–	–	–
CCOC(=O)Nc1ccc(NCc2ccc(F)cc2)cc1N [Retigabine/ezogabine]	–	–	–	–	–	reduces seizure activity	significantly reduced seizure frequency	attenuated

From patent publication US20230303486A1, “CYCLOBUTYL-UREA DERIVATIVES” (Idorsia Pharmaceuticals Ltd, priority 2020, published 2023)
